# Results reported in patent US5698411A, “Method for determining activity of enzymes in metabolically active whole cells” (priority 1995, dated 1997).
# What was measured:
# Type in all cases: cell-based, human
# monocytes [1] = experiment: aberrant enzyme activities in febrile children, monocytes (Table 7)
# monocytes [2] = experiment: enzyme activity with fluorogenic substrate, normal monocytes (Table 3A)
# granulocytes [3] = experiment: enzyme activity with fluorogenic substrate, normal granulocytes (Table 3A)
# lymphocytes [4] = experiment: enzyme activity with fluorogenic substrate, normal lymphocytes (Table 3A)
# granulocytes [5] = experiment: aberrant enzyme activities in febrile children, granulocytes (Table 7)
# lymphocytes [6] = experiment: aberrant enzyme activities in febrile children, lymphocytes (Table 7)
# [7] = P89 Viral Stomatitis, listed as Val/Lys-M
# [8] = P95 Viral Syndrome, listed as Val/Lys-M
# [9] = P96 Viral Syndrome, listed as Val/Lys-M
# [10] = P97 Pyelonephritis, listed as Val/Lys-M
structure (smiles),measurement,setting,value
C[C@@H](O)[C@H](NC(=O)OCc1ccccc1)C(=O)N1CCC[C@H]1C(=O)Nc1ccc2c(c1)Oc1cc(NC(=O)[C@@H]3CCCN3C(=O)[C@@H](NC(=O)OCc3ccccc3)[C@@H](C)O)ccc1C21OC(=O)c2ccccc21 [Z-TP 8.7-M],"aberrant enzyme activity, MONOS",monocytes [1]; P92 Adenitis,- (>0.25 Decrease over normal range)
same,"aberrant enzyme activity, MONOS",monocytes [1]; P97 Pyelonephritis,.smallcircle.
same,"aberrant enzyme activity, MONOS",monocytes [1]; P103 Viral Syndrome,.smallcircle.
same,NORMAL LEUKOCYTE ENZYME ACTIVITY MONOS Mean,monocytes [2],71.45
same,NORMAL LEUKOCYTE ENZYME ACTIVITY GRANS Mean,granulocytes [3],80.16
same,NORMAL LEUKOCYTE ENZYME ACTIVITY LYMPHS Mean,lymphocytes [4],30.99
same,"aberrant enzyme activity, GRANS",granulocytes [5]; P92 Adenitis,- (>0.25 Decrease over normal range)
same,"aberrant enzyme activity, GRANS",granulocytes [5]; P97 Pyelonephritis,.smallcircle.
same,"aberrant enzyme activity, GRANS",granulocytes [5]; P103 Viral Syndrome,.smallcircle.
same,"aberrant enzyme activity, LYMPHS",lymphocytes [6]; P92 Adenitis,- (>0.25 Decrease over normal range)
same,"aberrant enzyme activity, LYMPHS",lymphocytes [6]; P97 Pyelonephritis,.smallcircle.
same,"aberrant enzyme activity, LYMPHS",lymphocytes [6]; P103 Viral Syndrome,.smallcircle.
"CC(C)[C@H](N)C(=O)N[C@@H](CCCCN)C(=O)Nc1ccc2c(c1)Oc1cc(NC(=O)[C@H](CCCCN)NC(=O)[C@@H](N)C(C)C)ccc1C21OC(=O)c2ccccc21 [VK-M, (Val-Lys)2 Rho 110 (modified)]","aberrant enzyme activity, MONOS",monocytes [1]; P88 Enteritis,- (>0.25 Decrease over normal range)
same,"aberrant enzyme activity, MONOS",monocytes [1]; [7],.smallcircle.
same,"aberrant enzyme activity, MONOS","monocytes [1]; P92 Adenitis, listed as Val/Lys-M",- (>0.25 Decrease over normal range)
same,"aberrant enzyme activity, MONOS",monocytes [1]; P95 Viral Syndrome,.smallcircle.
same,"aberrant enzyme activity, MONOS",monocytes [1]; P96 Viral Syndrome,.smallcircle.
same,"aberrant enzyme activity, MONOS",monocytes [1]; P97 Pyelonephritis,.smallcircle.
same,"aberrant enzyme activity, MONOS","monocytes [1]; P101 Fever -- Unknown Origin, listed as Val/Lys-M",- (>0.25 Decrease over normal range)
same,"aberrant enzyme activity, MONOS",monocytes [1]; P102 UTI,- (>0.25 Decrease over normal range)
same,"aberrant enzyme activity, MONOS","monocytes [1]; P103 Viral Syndrome, listed as Val/Lys-M",.smallcircle.
same,NORMAL LEUKOCYTE ENZYME ACTIVITY MONOS Mean,monocytes [2],43.37
same,NORMAL LEUKOCYTE ENZYME ACTIVITY GRANS Mean,granulocytes [3],4.31
same,NORMAL LEUKOCYTE ENZYME ACTIVITY LYMPHS Mean,lymphocytes [4],2.05
same,"aberrant enzyme activity, GRANS",granulocytes [5]; P88 Enteritis,- (>0.25 Decrease over normal range)
same,"aberrant enzyme activity, GRANS",granulocytes [5]; [7],.smallcircle.
same,"aberrant enzyme activity, GRANS",granulocytes [5]; P92 Adenitis,.smallcircle.
same,"aberrant enzyme activity, GRANS",granulocytes [5]; [8],+ (>0.25 Increase over normal range)
same,"aberrant enzyme activity, GRANS",granulocytes [5]; [9],+ (>0.25 Increase over normal range)
same,"aberrant enzyme activity, GRANS",granulocytes [5]; [10],.smallcircle.
same,"aberrant enzyme activity, GRANS",granulocytes [5]; P101 Fever -- Unknown Origin,.smallcircle.
same,"aberrant enzyme activity, GRANS","granulocytes [5]; P102 UTI, listed as Val/Lys-M",- (>0.25 Decrease over normal range)
same,"aberrant enzyme activity, GRANS",granulocytes [5]; P103 Viral Syndrome,.smallcircle.
same,"aberrant enzyme activity, LYMPHS",lymphocytes [6]; P88 Enteritis,.smallcircle.
same,"aberrant enzyme activity, LYMPHS",lymphocytes [6]; P89 Viral Stomatitis,.smallcircle.
same,"aberrant enzyme activity, LYMPHS",lymphocytes [6]; P92 Adenitis,.smallcircle.
same,"aberrant enzyme activity, LYMPHS",lymphocytes [6]; [8],+ (>0.25 Increase over normal range)
same,"aberrant enzyme activity, LYMPHS",lymphocytes [6]; [9],+ (>0.25 Increase over normal range)
same,"aberrant enzyme activity, LYMPHS",lymphocytes [6]; [10],+ (>0.25 Increase over normal range)
same,"aberrant enzyme activity, LYMPHS",lymphocytes [6]; P101 Fever -- Unknown Origin,.smallcircle.
same,"aberrant enzyme activity, LYMPHS",lymphocytes [6]; P102 UTI,.smallcircle.
same,"aberrant enzyme activity, LYMPHS",lymphocytes [6]; P103 Viral Syndrome,.smallcircle.
C[C@@H](O)[C@H](NC(=O)OCc1ccccc1)C(=O)N1CCC[C@H]1C(=O)Nc1ccc2c(c1)Oc1cc(NC(=O)[C@@H]3CCCN3C(=O)[C@@H](NC(=O)OCc3ccccc3)[C@@H](C)O)ccc1C21OC(=O)c2ccccc21 [Z-TP6.5M],"aberrant enzyme activity, MONOS",monocytes [1]; P92 Adenitis,- (>0.25 Decrease over normal range)
same,"aberrant enzyme activity, MONOS",monocytes [1]; P97 Pyelonephritis,.smallcircle.
same,"aberrant enzyme activity, MONOS",monocytes [1]; P103 Viral Syndrome,.smallcircle.
same,NORMAL LEUKOCYTE ENZYME ACTIVITY MONOS Mean,monocytes [2],45.70
same,NORMAL LEUKOCYTE ENZYME ACTIVITY GRANS Mean,granulocytes [3],55.07
same,NORMAL LEUKOCYTE ENZYME ACTIVITY LYMPHS Mean,lymphocytes [4],20.62
same,"aberrant enzyme activity, GRANS",granulocytes [5]; P92 Adenitis,- (>0.25 Decrease over normal range)
same,"aberrant enzyme activity, GRANS",granulocytes [5]; P97 Pyelonephritis,.smallcircle.
same,"aberrant enzyme activity, GRANS",granulocytes [5]; P103 Viral Syndrome,.smallcircle.
same,"aberrant enzyme activity, LYMPHS",lymphocytes [6]; P92 Adenitis,- (>0.25 Decrease over normal range)
same,"aberrant enzyme activity, LYMPHS",lymphocytes [6]; P97 Pyelonephritis,.smallcircle.
same,"aberrant enzyme activity, LYMPHS",lymphocytes [6]; P103 Viral Syndrome,.smallcircle.
